Publication PMC7288171, “Synergistic Effects of Thiosemicarbazides with Clinical Drugs against S. aureus” (Molecules, 2020)
Converted amounts (≈) assume the structure as drawn. Read-outs that look alike come from different tables or passages of the source.

Legend:
[1] = tested on: MSSA-4; test: MIC, clinical isolate of S. aureus; format: cell-based; conditions: Staphylococcus aureus
Description: (§1) The antibacterial activity of the thiosemicarbazides 1–9 and antibiotics (amoxicillin, gentamicin, levofloxacin, linezolid, and vancomycin) was tested on the Gram-positive strains (Microbiologics, St. Cloud, MN, USA) (S. aureus ATCC 25923, S. aureus ATCC 6538, S. epidermidis ATCC 12228, B. subtilis ATCC 6633, B. cereus ATCC 10876, M. luteus ATCC 10240), the Gram-negative strains (Microbiologics, St. Cloud, MN, USA) (E. coli ATCC 25922, K. pneumoniae ATCC 13883, P. mirabilis ATCC 12453, P. aeruginosa ATCC 9027), and clinical isolates of S. aureus (Medical University of Lublin, Lublin, Poland) (MSSA-1, MSSA-2, MSSA-3, MSSA-4, MRSA-1).

[2] = tested on: MSSA-2; test: MIC, clinical isolate of S. aureus; format: cell-based; conditions: Staphylococcus aureus
Description: as §1

[3] = tested on: MSSA-1; test: MIC, clinical isolate of S. aureus; format: cell-based; conditions: Staphylococcus aureus
Description: as §1

[4] = tested on: MRSA-1; test: MIC, clinical isolate of S. aureus; format: cell-based; conditions: Staphylococcus aureus
Description: as §1

[5] = tested on: MSSA-3; test: MIC, clinical isolate of S. aureus; format: cell-based; conditions: Staphylococcus aureus
Description: as §1

[6] = tested on: M. luteus ATCC 10240; test: MIC, broth microdilution; format: cell-based; conditions: Micrococcus luteus, ATCC10240
Description: as §1

[7] = tested on: S. epidermidis ATCC 12228; test: MIC, broth microdilution; format: cell-based; conditions: Staphylococcus epidermidis, ATCC12228
Description: as §1

[8] = tested on: S. aureus ATCC 6538; test: MIC, broth microdilution; format: cell-based; conditions: Staphylococcus aureus, ATCC6538
Description: as §1

[9] = tested on: B. subtilis ATCC 6633; test: MIC, broth microdilution; format: cell-based; conditions: Bacillus subtilis, ATCC6633
Description: as §1

[10] = tested on: B. cereus ATCC 10876; test: MIC, broth microdilution; format: cell-based; conditions: Bacillus cereus, ATCC10876
Description: as §1

[11] = tested on: S. aureus ATCC 25923; test: MIC, broth microdilution; format: cell-based; conditions: Staphylococcus aureus, ATCC25923
Description: as §1

[12] = target: T1, S. aureus DNA gyrase (Staphylococcus aureus, UniProt P0A0K8+P20831); test: Gyrase supercoiling assay; format: biochemical
T1 construct: purchased Inspiralis, Norwich, UK
T1 sequence (P20831 whole entry): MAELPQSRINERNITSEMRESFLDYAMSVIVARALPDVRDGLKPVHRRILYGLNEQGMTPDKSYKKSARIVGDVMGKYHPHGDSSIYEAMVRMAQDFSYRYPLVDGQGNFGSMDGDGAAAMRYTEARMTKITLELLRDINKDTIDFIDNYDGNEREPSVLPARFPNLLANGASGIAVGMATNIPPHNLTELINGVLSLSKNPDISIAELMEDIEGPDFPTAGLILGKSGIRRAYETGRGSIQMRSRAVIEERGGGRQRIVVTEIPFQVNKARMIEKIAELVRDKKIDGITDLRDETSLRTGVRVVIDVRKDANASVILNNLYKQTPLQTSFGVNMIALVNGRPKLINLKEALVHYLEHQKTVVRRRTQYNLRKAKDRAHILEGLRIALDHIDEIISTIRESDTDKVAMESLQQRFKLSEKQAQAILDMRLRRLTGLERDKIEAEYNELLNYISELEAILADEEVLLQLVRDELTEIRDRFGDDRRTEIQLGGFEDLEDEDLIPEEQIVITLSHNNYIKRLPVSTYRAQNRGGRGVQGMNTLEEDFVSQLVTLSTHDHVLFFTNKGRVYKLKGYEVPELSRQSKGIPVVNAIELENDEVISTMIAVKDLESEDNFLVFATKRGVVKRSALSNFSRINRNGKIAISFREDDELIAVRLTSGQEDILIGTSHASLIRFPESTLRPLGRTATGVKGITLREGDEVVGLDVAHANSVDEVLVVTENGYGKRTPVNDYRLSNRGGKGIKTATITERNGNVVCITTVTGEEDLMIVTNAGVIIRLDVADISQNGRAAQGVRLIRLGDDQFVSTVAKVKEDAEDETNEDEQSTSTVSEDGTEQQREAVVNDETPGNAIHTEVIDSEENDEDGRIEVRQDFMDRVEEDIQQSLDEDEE
T1 sequence (P0A0K8 whole entry): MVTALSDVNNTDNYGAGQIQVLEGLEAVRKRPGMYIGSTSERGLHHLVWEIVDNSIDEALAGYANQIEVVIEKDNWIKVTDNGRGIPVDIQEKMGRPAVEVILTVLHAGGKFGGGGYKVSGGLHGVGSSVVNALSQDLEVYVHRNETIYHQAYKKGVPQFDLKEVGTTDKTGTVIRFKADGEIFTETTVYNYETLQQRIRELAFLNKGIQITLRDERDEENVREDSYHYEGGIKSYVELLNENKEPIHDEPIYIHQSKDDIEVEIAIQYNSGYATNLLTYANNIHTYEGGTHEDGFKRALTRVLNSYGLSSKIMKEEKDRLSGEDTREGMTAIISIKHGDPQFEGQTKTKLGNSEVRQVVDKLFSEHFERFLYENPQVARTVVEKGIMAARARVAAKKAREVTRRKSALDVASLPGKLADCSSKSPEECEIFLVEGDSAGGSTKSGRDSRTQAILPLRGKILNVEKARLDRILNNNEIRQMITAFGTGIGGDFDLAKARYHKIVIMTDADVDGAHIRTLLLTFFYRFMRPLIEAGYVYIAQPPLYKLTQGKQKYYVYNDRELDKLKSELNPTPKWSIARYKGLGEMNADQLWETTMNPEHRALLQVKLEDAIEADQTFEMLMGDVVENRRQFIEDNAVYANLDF
Description: Supercoiling assay: The assays were performed using S. aureus Gyrase Supercoiling Assay Kits (Inspiralis, Norwich, UK). Briefly, […] pBR322 plasmid DNA (0.5 µg) was incubated with 1 unit of gyrase, in the dedicated supercoiling assay buffer supplied by the manufacturer, in the presence of varying concentrations of the test compounds. Reactions were carried out at 37 °C for 1 h and then terminated by the addition of equal volume of 2 × STOP Buffer (40% sucrose, 100 mM Tris-Cl pH 7.5, 1 mM EDTA, and 0.5 mg/mL bromophenol blue) and chloroform/iso-amyl alcohol. Samples were vortexed, centrifuged, and run through a 15 cm 1% agarose gel in TAE buffer (40 mM Tris-acetate, 2 mM EDTA) for 3 h at 50 V. Gels were stained with ethidium bromide and visualized under UV light.

[13] = tested on: human foreskin fibroblast Hs27 cells (CRL-1634); test: MTT cytotoxicity assay; format: cell-based; conditions: Homo sapiens, 24 h of treatment
Description: (§2) A critical factor in research and development of new antibacterial agents is their abilities to selectively target bacterial cells without toxicity to mammalian cells. Thus, in order to test if antibacterial activity of title thiosemicarbazides is not due to their general toxicity, their effect on mammalian cell viability was assessed using human foreskin fibroblast Hs27 cells (CRL-1634) via MTT assay.
(§3) Cytotoxic properties of the compounds were evaluated using human foreskin fibroblast cells Hs27 (ATCC CRL-1634) (ATCC, Manassas, VA, USA) that were cultured in DMEM-high glucose (Sigma Aldrich, St. Louis, MO, USA). Medium was supplemented with 10% fetal bovine serum (FBS, Sigma Aldrich), 100 U/mL of penicillin, and […] of streptomycin (PenStrep, Sigma Aldrich, St. Louis, MO, USA). Cells were incubated at 37 °C in a humidified atmosphere of 5% CO2. Stock solutions of the tested compounds were prepared dissolving in a sterile dimethyl sulfoxide (DMSO) to the concentration of 50 mg/mL. The cells were seeded into 96-well sterile plates (Nunc) at a cell density of 1 × 10^5 cells/mL. After 24 h of incubation, the medium was removed from each well, and then cells were incubated for the next 24 h with tested compounds (in a fixed dose of 25 µg/mL) in DMEM-high glucose containing 2% FBS. Control cells were cultured only with medium containing 2% addition of FBS. Cytotoxicity of the compounds was evaluated using MTT assay, which is based on the conversion of 3-(4,5-dimethylthiazol-2-yl)-2,5- diphenyltetrazolium bromide (MTT) into dark-blue formazan crystals. Briefly, after 24-h incubation of cells with varying concentrations of the tested compounds, culture medium was removed from the plates. Cells were washed with PBS, and then 100 µL of medium containing 10% MTT solution (5 mg/mL) was added to each well. Cells were incubated for the next 3 h at 37 °C in an atmosphere of 5% CO2. Next, 100 µL (per well) of 10% sodium dodecyl sulfate (SDS) buffer solution was added to dissolve formazan crystals and after an overnight incubation the absorbance was measured at 570 nm using a microplate reader (Epoch, BioTek Instruments, Inc., Winooski, VT, USA).

[14] = MTT cytotoxicity assay; format: cell-based, human; conditions: human, Hs27 foreskin fibroblast cells (ATCC CRL-1634), 25 µg/mL, 24 h, vehicle control = 100%
Description: as §2, §3

[15] = tested on: S. aureus ATCC 25923; test: Checkerboard broth dilution synergy assay; format: cell-based
Description: The microdilution checkerboard method was used to evaluate the synergistic effects between the thiosemicarbazides 1–9 and antibiotics, which were determined as the fractional inhibitory concentration indices (FICIs). For these experiments, amoxicillin, gentamicin, levofloxacin, linezolid, and vancomycin were selected to represent the five antimicrobial classes most commonly used in clinical practice. In this way, a total of 45 combinations of thiosemicarbazide-amoxicillin, thiosemicarbazide-gentamicin, thiosemicarbazide-levofloxacin, thiosemicarbazide-linezolid, and thiosemicarbazide-vancomycin against S. aureus ATCC 25923 were tested to identify in vitro synergy effects.
Interaction of the thiosemicarbazides 1–9 in combination with amoxicillin, gentamicin, levofloxacin, linezolid or vancomycin against S. aureus ATCC 25923 were analyzed using the checkerboard broth dilution method to determine the fractional inhibitory concentration indices (FICIs), calculated as: FIC = MIC of drug A in combination/MIC of drug A alone + MIC of drug B in combination/MIC of drug B alone. The calculated FICIs were interpreted as synergistic (FIC ≤ 0.5), additive (0.5 < FIC < 1), indifferent (1 ≤ FIC < 4.0), or antagonistic (FIC ≥ 4.0). The checkerboard assay included ciprofloxacin-carvedilol combination as positive control, whereas cefuroxime in combination with 4-(4-bromophenyl)-1-(3-fluorobezoyl)thiosemicarbazide served as negative control. The Z-factor value for the bioassay was 0.683.

[16] = clinical isolate MSSA-4, read-out: MIC
[17] = clinical isolate MSSA-2, read-out: MIC
[18] = clinical isolate MSSA-1, read-out: MIC
[19] = clinical isolate MRSA-1, read-out: MIC
[20] = clinical isolate MSSA-3, read-out: MIC
[21] = M. l. ATCC 10240, compounds 6–9 and antibiotics, read-out: MIC
[22] = S. e. ATCC 12228, compounds 6–9 and antibiotics, read-out: MIC
[23] = S. a. ATCC 6538, compounds 6–9 and antibiotics, read-out: MIC
[24] = B. s. ATCC 6633, compounds 6–9 and antibiotics, read-out: MIC
[25] = B. c. ATCC 10876, compounds 6–9 and antibiotics, read-out: MIC
[26] = S. a. ATCC 25923, compounds 6–9 and antibiotics, read-out: MIC

| Compound | MIC [1, 16] [µg/mL] | MIC [2, 17] [µg/mL] | MIC [3, 18] [µg/mL] | MIC [4, 19] [µg/mL] | MIC [5, 20] [µg/mL] | MIC [6, 21] [µg/mL] | MIC [7, 22] [µg/mL] | MIC [8, 23] [µg/mL] | MIC [9, 24] [µg/mL] | MIC [10, 25] [µg/mL] | MIC [11, 26] [µg/mL] | other results |
| --- | --- | --- | --- | --- | --- | --- | --- | --- | --- | --- | --- | --- |
| CC(=O)NC[C@H]1CN(c2ccc(N3CCOCC3)c(F)c2)C(=O)O1 [LZD, linezolid, reference compound] | 1.95 (≈ 5.78 µM) | 1.95 (≈ 5.78 µM) | 1.95 (≈ 5.78 µM) | 1.95 (≈ 5.78 µM) | 0.98 (≈ 2.9 µM) | 0.98 (≈ 2.9 µM) | 0.49 (≈ 1.45 µM) | 0.98 (≈ 2.9 µM) | 0.98 (≈ 2.9 µM) | 0.98 (≈ 2.9 µM) | 1.95 (≈ 5.78 µM) |  |
| CN[C@H](CC(C)C)C(=O)N[C@H]1C(=O)N[C@@H](CC(N)=O)C(=O)N[C@H]2C(=O)N[C@H]3C(=O)N[C@H](C(=O)N[C@H](C(=O)O)c4cc(O)cc(O)c4-c4cc3ccc4O)[C@H](O)c3ccc(c(Cl)c3)Oc3cc2cc(c3O[C@@H]2O[C@H](CO)[C@@H](O)[C@H](O)[C@H]2O[C@H]2C[C@](C)(N)[C@H](O)[C@H](C)O2)Oc2ccc(cc2Cl)[C@H]1O [VA, vancomycin, reference compound] |  |  |  |  |  |  |  |  |  |  |  | MIC ([1]; MSSA): 0.49 µg/mL (≈ 0.338 µM); MIC ([2]; MSSA): 0.49 µg/mL (≈ 0.338 µM); MIC ([3]; MSSA): 0.49 µg/mL (≈ 0.338 µM); MIC ([4]; MRSA): 0.98 µg/mL (≈ 0.676 µM); MIC ([5]; MSSA): 0.49 µg/mL (≈ 0.338 µM); MIC [6]: 0.24 µg/mL (≈ 0.166 µM); MIC [7]: 0.98 µg/mL (≈ 0.676 µM); MIC [8]: 0.49 µg/mL (≈ 0.338 µM); MIC [9]: 0.24 µg/mL (≈ 0.166 µM); MIC [10]: 0.98 µg/mL (≈ 0.676 µM); MIC [11]: 0.98 µg/mL (≈ 0.676 µM) |
| O=C(NNC(=S)Nc1ccc(Cl)cc1)c1ccccc1F [compound 6, 4-(4-chlorophenyl)-1-(2-fluorobenzoyl)thiosemicarbazide] | 125 (≈ 386 µM) | > 500 | 250 (≈ 772 µM) | 500 (≈ 1540 µM) | 250 (≈ 772 µM) | 7.82 (≈ 24.2 µM) | 250 (≈ 772 µM) | 250 (≈ 772 µM) | 500 (≈ 1540 µM) | 31.2 (≈ 96.5 µM) | 500 (≈ 1540 µM) | inhibition at 50 µM ([12]; 50 µM, read-out: S. aureus Gyrase DNA Inhibition (%) ± SD): 30.8 ± 3.19%; S. aureus Gyrase DNA Inhibition (%) ± SD ([12]; 100 µM): 49.22 ± 3.18%; inhibition at 100 µM ([12]; read-out: S. aureus Gyrase DNA Inhibition (%) ± SD, 100 µM): ~50%; IC50 [13]: > 25 µg/mL; viability at 24 h, 25 µg/mL [14]: 96.8%; interaction in combination ([15]; combination with amoxicillin): additive; interaction in combination ([15]; combination with gentamicin): synergistic; interaction in combination ([15]; combination with levofloxacin): additive; interaction in combination ([15]; combination with linezolid): synergistic; interaction in combination ([15]; combination with vancomycin): additive |
